Molecular target: T1, VvHmpA (Vibrio vulnificus, UniProt Q8DCU2)
T1 construct: gene hmp; reconstituted with heme or FAD
Assay: FAD fluorometric assay after reconstitution
Type: binding
Conditions: 10 μM protein incubated with 80 μM FAD, 1 h, room temperature; stoichiometry, no affinity constant

T1 sequence (Q8DCU2 whole entry): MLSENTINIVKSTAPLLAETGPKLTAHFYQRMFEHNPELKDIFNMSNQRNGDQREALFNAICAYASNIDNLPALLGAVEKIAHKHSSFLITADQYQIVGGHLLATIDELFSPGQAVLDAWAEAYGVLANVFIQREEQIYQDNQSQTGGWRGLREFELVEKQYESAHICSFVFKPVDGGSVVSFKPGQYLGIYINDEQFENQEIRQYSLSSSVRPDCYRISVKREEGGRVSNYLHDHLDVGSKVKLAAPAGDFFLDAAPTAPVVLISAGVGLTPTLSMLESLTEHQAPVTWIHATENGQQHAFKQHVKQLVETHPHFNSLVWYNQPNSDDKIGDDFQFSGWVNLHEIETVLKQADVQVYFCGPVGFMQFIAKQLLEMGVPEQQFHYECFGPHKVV

Cc1cc2nc3c(=O)[nH]c(=O)nc-3n(C[C@H](O)[C@H](O)[C@H](O)COP(=O)(O)OP(=O)(O)OC[C@H]3O[C@@H](n4cnc5c(N)ncnc54)[C@H](O)[C@@H]3O)c2cc1C [FAD]
molecules of FAD per VvHmpA monomer: 0.92 ± 0.12 molecules per monomer

Reference: publication PMC6768983, “Transcriptomic Identification and Biochemical Characterization of HmpA, a Nitric Oxide Dioxygenase, Essential for Pathogenesis of Vibrio vulnificus” (Frontiers in Microbiology, 2019)
